Data as given in patent EP0333028A1, “1-Substituted 4-pentafluorophenoxypiperidines, a process for their preparation and their use as medicaments” (HOECHST-ROUSSEL PHARMACEUTICALS INCORPORATED, priority 1988, dated 1989).

Tests used:
Assay type in all cases: in vivo
[1] = test system: male mice (Charles River, CD-1); experiment: Metrazol lethality assay (MTZ); settings: Mus musculus, po, protection against Metrazol lethality, read-out: Anticonvulsant Activity MTZ ED₅₀
Description: (§1) The compounds of this invention are useful as anticonvulsants due to their anticonvulsant activity in mammals. Anticonvulsant activity is measured in male mice using the supramaximal electroshock (SES) assay described in Arch. Int. Pharmacodyn. 92, pp. 97-107, (1952) and the metrazol lethality assay (MTZ) described in J. Pharmacol. Exp. Ther., 81, 402 (1944).
Groups of male mice (Charles River, CD-1), weighing 18 to 30 grams are employed in the Metrazol lethality assay. Test compounds are dissolved in distilled water or if insoluble, suspended in water, to which a surfactant, such as Tween-80 is added. The test compounds are administered orally, the administered dose being dissolved or suspended in 10 ml of solution or suspension per kg of animal body weight. Control aminals (2 mice/group) receive water or water and Tween-80, i.e., the vehicle for administration of the test compound. Metrazol (pentylenetetrazol) is dissolved in water (concentration 225 mg of Metrazol/10 ml of solution), and the solution is administered subcutaneously to groups of five animals each at one or more time intervals of 15, 30, 60, 90, or 120 minutes after administration of the test compound. The number of animal alive 15 minutes after treatment with Metrazol is determined and recorded. The following formula is employed to calculate the percent protection against Metrazol lethality. [formula]
A dose range determination is performed by substantially the same procedure as the time response determination. In the dose range determination, five groups of 10 animals per group are employed. This determination is generally reserved for those compounds which protect against lethality by greater than 70% at the screening dose employed.

[2] = test system: male mice (Charles River, CD-1); experiment: supramaximal electroshock (SES) assay; settings: Mus musculus, ip, protection against extensor tonus after electroshock, read-out: Anticonvulsant Activity SES ED₅₀
Description: as §1
Groups of male mice (Charles River, CD-1) weighing 18 to 30 g are employed in the SES assay. Test compounds are dissolved in distilled water, or if insoluble, suspended in water containing one drop of a surfactant, such as Tween-80. Test compounds are generally administered intraperitoneally at a dose of 10 ml of solution, or suspension, per kg of animal body weight. The output terminals of an A.C. shocker, which delivers 206 volts rms for 300 msec, are placed across the animals' eyes, an electrode paste coating assuring contact of the terminals with the eyes. The test compound is administered and thereafter the subject animals are shocked.
Protection is expressed as normalized percent inhibition relative to vehicle control. [formula] A time response is carried out using 6 animals per group. Animals are tested at 30, 60 and 120 minutes post drug. Additional time periods are tested if indicated by previous tests. A dose range determination is generally reserved for those compounds which inhibit convulsions by greater than about 45-55% at the screening dose employed at the time the test was performed. When the peak activity time has been determined, a dose response is initiated, using 10 animals per group at that time period.

[3] = test system: spontaneous hypertensive rat; experiment: antihypertensive activity, indirect tail cuff method (SHR); settings: 50 mg/kg p.o. for three days, measured on the third day, decrease in mean arterial blood pressure
Description: In this procedure a group of five animals is treated orally for three days with the test compound in relation to a control group of the same number. The drop in blood pressure is measured on the third day following administration. […]

[4] = test system: male mice (Charles River, CD-1); experiment: tetrabenazine induced ptosis assay (TBZ); settings: Mus musculus, ip, 50% inhibition of tetrabenazine-induced ptosis, read-out: Antidepressant Activity TBZ ED₅₀
Description: The compounds of this invention are also useful as antidepressants by virtue of their ability to elicit an antidepressant response in mammals. […] In the tetrabenazine induced ptosis assay, male mice (Charles River, CD-1), weighing 20 to 39 g, are used in test groups of five animals. Test compounds are dissolved, or suspended with 1 drop of Tween-80, in distilled water and administered to the animals in volumes of 10 cc per kg of body weight. Tetrabenazine methanesulfonate (76.78% as the free base) is dissolved in distilled water and the concentration of the solution is adjusted so that the dose, administered intraperitoneally (i.p.) to the animals, is 40 mg of tetrabenazine base per kg of animal body weight. The test compound is administered intraperitoneally (i.p.) or perorally (p.o.) to the subject animals, and the tetrabenazine solution is administered 30 minutes or 60 minutes, respectively, thereafter. […] The subject animals are placed in individual plastic containers of the size 26.7 cm x 20.3 cm x 15.2 cm (10.1/2" x 8" x 6") thirty (i.p.) and sixty minutes (p.o.) after administration of the tetrabenazine solution, and one minute thereafter, the animals scored for ptosis on the following scale: [table] […] The results are discarded and the test is repeated, if the control score is determined to be less than 17. […]

Q: `CCC1(c2ccccc2)C(=O)NC(=O)NC1=O` [Phenobarbital, reference compound] was tested. Which ED50 [1] did it give?
A: Its ED50 is 16.9 mg/kg.

Q: And the ED50 [2]?
A: Its ED50 is 8.4 mg/kg.

Q: How did the ED50 [1] turn out when `CN(C)C(=O)N1CCC(Oc2c(F)c(F)c(F)c(F)c2F)CC1` [Example 2, 1-[(N,N-Dimethylamino)carbonyl]-4-(2,3,4,5,6-pentafluorophenoxy)piperidine] was run?
A: Its ED50 is 40.4 mg/kg.

Q: And the ED50 [2]?
A: The ED50 was 50.2 mg/kg.

Q: How did the “mm dec. in blood pressure at 50 mg/kg p.o.” value [3] turn out when `CC(=O)N1CCC(Oc2c(F)c(F)c(F)c(F)c2F)CC1` [Example 6, 1-Acetyl-4-(2,3,4,5,6-pentafluorophenoxy)piperidine] was run?
A: The value was 36 mm Hg.

Q: How did the ED50 [1] turn out when `CNC(=O)N1CCC(Oc2c(F)c(F)c(F)c(F)c2F)CC1` [Example 1, 1-[(N-Methylamino)carbonyl]-4-(2,3,4,5,6-pentafluorophenoxy)piperidine] was run?
A: Its ED50 is 35.9 mg/kg.

Q: And the ED50 [2]?
A: Its ED50 is 62.5 mg/kg.

Q: And the ED50 [4]?
A: The ED50 was 11.3 mg/kg.

Q: Which “mm dec. in blood pressure at 50 mg/kg p.o.” value [3] does the source give for `NC(=O)N1CCC(Oc2c(F)c(F)c(F)c(F)c2F)CC1` [Example 7, 1-Aminocarbonyl-4-(2,3,4,5,6-pentafluorophenoxy)piperidine] here?
A: The value was 39 mm Hg.

Q: Which “mm dec. in blood pressure at 50 mg/kg p.o.” value [3] does the source give for `N=C(N)NCCN1CCCCCCC1` [Guanethidine, reference compound] here?
A: The value was 20 mm Hg.

Q: `CN(C)CCC=C1c2ccccc2CCc2ccccc21` [Amitriptyline, reference compound] was tested. Which ED50 [4] did it give?
A: Its ED50 is 1.5 mg/kg.
